Data as given in patent publication US5688807A, “Method for treating 5HT2B receptor related conditions” (Eli Lilly and Company, priority 1995, dated 1997).
Counter-ions that a name gives are not always drawn.

Each molecule was assayed against 5-HT2B receptor (rat stomach fundus) (Rattus norvegicus, UniProt P30994) (assay: not given). Conditions: not given.
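Throughout, for 5-HT2B (Fundus) -log KB: isometric contraction of isolated male Wistar rat stomach fundus strips, serotonin concentration-response curves after antagonist incubation, KB from dose ratio of agonist potency versus control curve.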
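Throughout, for Kb: isometric contraction of isolated male Wistar rat stomach fundus strips, serotonin concentration-response curves after antagonist incubation, KB from dose ratio of agonist potency versus control curve.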
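Throughout, for Ki Rat 5-HT2B: displacement of [3H]5-HT from membranes of suspension cells carrying cloned rat 5-HT2B receptor, incubated 15 min at 37 °C or 2 h at 0 °C, filter-bound radioactivity counted by scintillation.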
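Throughout, for Ki: displacement of [3H]5-HT from membranes of suspension cells carrying cloned rat 5-HT2B receptor, incubated 15 min at 37 °C or 2 h at 0 °C, filter-bound radioactivity counted by scintillation.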

5-HT2B receptor (rat stomach fundus), sequence (P30994 whole entry): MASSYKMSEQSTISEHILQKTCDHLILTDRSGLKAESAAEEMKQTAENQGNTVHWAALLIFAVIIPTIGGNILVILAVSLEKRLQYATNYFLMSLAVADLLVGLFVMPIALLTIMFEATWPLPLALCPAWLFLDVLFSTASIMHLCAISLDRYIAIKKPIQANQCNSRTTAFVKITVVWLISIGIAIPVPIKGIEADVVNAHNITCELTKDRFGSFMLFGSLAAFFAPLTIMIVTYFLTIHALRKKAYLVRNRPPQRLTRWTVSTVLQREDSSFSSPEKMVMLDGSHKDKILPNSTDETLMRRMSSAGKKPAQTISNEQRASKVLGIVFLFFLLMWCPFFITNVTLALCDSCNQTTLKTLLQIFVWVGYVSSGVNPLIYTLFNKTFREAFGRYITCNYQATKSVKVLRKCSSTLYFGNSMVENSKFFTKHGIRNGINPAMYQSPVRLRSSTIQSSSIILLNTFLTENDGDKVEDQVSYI

Row | SMILES | Kb [nM]
1 | COc1ccc(CC2NCCc3c2[nH]c2c(Br)c(C)ccc32)cc1OC (stereo not shown) [Example 7, 7-methyl-8-bromo-1-[(3,4-dimethoxyphenyl)-methyl]-1,2,3,4-tetrahydro-9H-pyrido[3,4-b]indole hydrochloride] | 0.955

Same assay, conditions: rat stomach fundus; vs serotonin; ± standard error; read-out: 5-HT2B (Fundus) -log KB (converted)

Row | SMILES | Kb [nM]
2 | COc1ccc(C(C)C2NCCc3c2[nH]c2ccc(C)cc32)cc1OC (racemic) [Example 40] | 0.178
3 | CCc1ccc2[nH]c3c(c2c1)CCNC3C(C)c1ccc(OC)c(OC)c1 (racemic) [Example 42, (±) 6-ethyl-1-[(3,4-dimethoxyphenyl)-1-ethyl]-1,2,3,4-tetrahydro-9H-pyrido[3,4-b]indole (Z)-2-butenedioate] | 0.275
4 | CCC(c1ccc(OC)c(OC)c1)C1NCCc2c1[nH]c1ccc(C)cc21 (racemic) [Example 43, (±) 6-methyl-1-[(3,4-dimethoxyphenyl)-1-propyl]-1,2,3,4-tetrahydro-9H-pyrido[3,4-b]indole (Z)-2-butenedioate] | 0.363
5 | CC(C)c1ccc2[nH]c3c(c2c1)CCNC3C(C)c1cccc2ccccc12 (racemic) [Example 50, hydrochloride] | 3.98
6 | Brc1cccc2c3c([nH]c12)C(Cc1cccc2ccccc12)NCC3 (racemic) [Example 52, (±) 8-bromo-1-(1-naphthalenylmethyl)-1,2,3,4-tetrahydro-9H-pyrido [3,4-b]indole hydrochloride] | ~0.794
7 | Brc1ccc2[nH]c3c(c2c1)CCNC3Cc1cccc2ccccc12 (racemic) [Example 55, (±) 6-bromo-1-(1-naphthalenylmethyl)-1,2,3,4-tetrahydro-9H-pyrido [3,4-b]indole (Z)-2-butenedioate] | 1.12
8 | Cc1ccc2c3c([nH]c2c1Br)C(Cc1cccc2ccccc12)NCC3 (racemic) [Example 56, (±) 7-methyl-8-bromo-1-(1-naphthalenylmethyl)-1,2,3,4-tetrahydro-9H-pyrido [3,4-b]indole hydrochloride] | ~29.5
9 | c1ccc2c(CC3NCCc4c3[nH]c3ccc(C5CCCCC5)cc43)cccc2c1 (racemic) [Example 57, (+/-) 6-cyclohexyl-1-(1-naphthalenylmethyl)-1,2,3,4-tetrahydro-9H-pyrido [3,4-b] indole hydrochloride] | > 10
10 | Cc1ccc2[nH]c3c(c2c1)CCN(C)C3Cc1cccc2ccccc12 (racemic) [Example 58, (+/-) 2,6-dimethyl-1-(1-naphthalenylmethyl)-1,2,3,4-tetrahydro-9H-pyrido [3,4-b] indole hydrochloride] | > 30.2
11 | Cc1ccc2[nH]c3c(c2c1F)CCNC3Cc1cccc2ccccc12 (racemic) [Example 59, (+/-) 5-fluoro-6-methyl-1-(1-naphthalenylmethyl)-1,2,3,4-tetrahydro-9H-pyrido [3,4-b] indole (Z)-2-butenedioate] | 0.204
12 | c1ccc2c(CC3NCCc4c3[nH]c3c4ccc4ccccc43)cccc2c1 (racemic) [Example 60, (+/-) 7,8,9,10-tetrahydro-10-(1-naphthalenylmethyl)-11H-benzo [g] pyrido [3,4-b] indole (Z)-2-butenedioate] | 1.2
13 | CC(C)(C)c1ccc2[nH]c3c(c2c1)CCNC3Cc1cccc2ccccc12 (racemic) [Example 61, (+/-) 6-(1,1-dimethylethyl)-1,2,3,4-tetrahydro-1-(1-naphthalenylmethyl)-9H-pyrido [3,4b] indole (Z)-2-butenedioate] | 3.63
14 | CC(C)c1ccc2[nH]c3c(c2c1)CCNC3Cc1cccc2ccccc12 (racemic) [Example 62, (+/-) 6-(1-methylethyl)-1,2,3,4-tetrahydro-1-(1-naphthalenylmethyl)-9H-pyrido [3,4b] indole (Z)-2-butenedioate] | 2.63
15 | Cc1ccc2c(c1)c1c(n2C)C(Cc2cccc3ccccc23)NCC1 (racemic) [Example 63, (+/-) 6,9-dimethyl-1,2,3,4-tetrahydro-1-(1-naphthalenylmethyl)-9H-pyrido [3,4-b] indole hydrochloride] | 0.813
16 | COc1ccc(CC2NCCc3c2[nH]c2c(C)cccc32)cc1OC (stereo not shown) [Example 1, 8-methyl-1-[(3,4-dimethoxyphenyl)methyl]-1,2,3,4-tetrahydro-9H-pyrido[3,4-b]indole] | 1
17 | COc1ccc(CC2NCCc3c2[nH]c2c(Br)cc(Br)cc32)cc1OC (stereo not shown) [Example 3, 6,8-dibromo-1-[(3,4-dimethoxyphenyl)methyl]-1,2,3,4-tetrahydro-9H-pyrido[3,4-b]indole] | 1.66
18 | COc1ccc(CC2NCCc3c2[nH]c2c(Br)cc(C)cc32)cc1OC (stereo not shown) [Example 4, 6-methyl-8-bromo-1-[(3,4-dimethoxyphenyl)-methyl]-1,2,3,4-tetrahydro-9H-pyrido[3,4-b]indole hydrochloride] | 1.2
19 | COc1ccc(CC2NCCc3c2[nH]c2c(F)cc(F)cc32)cc1OC (stereo not shown) [Example 6, 6,8-difluoro-1-[(3,4-dimethoxyphenyl)-methyl]-1,2,3,4-tetrahydro-9H-pyrido[3,4-b]indole] | 0.251
20 | COc1ccc(CC2NCCc3c2[nH]c2ccc(C(C)(C)C)cc32)cc1OC (stereo not shown) [Example 8, 6-(1,1-dimethylethyl)-1-[(3,4-dimethoxyphenyl)methyl]1,2,3,4-tetrahydro-1-9H-pyrido-[3,4b]indole hydrochloride] | 3.55
21 | COc1ccc(CC2NCCc3c2[nH]c2ccc(C)c(F)c32)cc1OC (stereo not shown) [Example 9, 5-fluoro-6-methyl-1-[(3,4-dimethoxyphenyl)-methyl]-1,2,3,4-tetrahydro-9H-pyrido[3,4-b]indole] | 0.501

What follows are molecules tested against rat 5-HT2B receptor (Rattus norvegicus, UniProt P30994) (assay: biochemical). Conditions: Ki Rat 5-HT2B, [3H]Serotonin; 5-HT2B cells; AVG.
rat 5-HT2B receptor, sequence (P30994 whole entry): as above
Assay type: binding

Row | SMILES | Ki [nM]
22 | CCC(CO)NC(=O)C1C=C2c3cccc4c3c(cn4C)CC2N(C)C1 (stereo not shown) | 6.28
23 | CN1CC(C(=O)NCCc2ccccn2)CC2c3cccc4c3c(cn4C)CC21 (stereo not shown) | 24.5
24 | CN1CC(C(=O)NCc2cccnc2)CC2c3cccc4[nH]cc(c34)CC21 (stereo not shown) | 35.1
25 | CN1CC(C(=O)NCc2cccnc2)CC2c3cccc4c3c(cn4C)CC21 (stereo not shown) | 15.5
26 | Cc1cc(Br)c2[nH]cc(CCN)c2c1 | 37.6
27 | NCCc1c[nH]c2c(Br)cccc12 | 32
28 | CCCNCCc1c[nH]c2ccc(Br)cc12 | 131
29 | CCCN(CCC)CCc1c[nH]c2ccc(OC)cc12 | 169
30 | CCCN(CCC)CCc1c[nH]c2ccc(O)cc12 | 61
31 | NCCc1c[nH]c2cc(F)ccc12 | 40.6
32 | NCCc1c[nH]c2c(F)cc(F)cc12 | 15.4
33 | NCCc1c[nH]c2ccc(OCc3ccccc3)cc12 | 30.2
34 | CCN(C)CCc1c[nH]c2ccc(OCc3ccccc3)cc12 | 84.5
35 | CN(C)CCc1c[nH]c2ccc(OCc3ccccc3)cc12 | 38.5
36 | COC(=O)c1ccc2[nH]cc(CCN)c2c1 | 49.3
37 | CC(N)Cc1c[nH]c2ccc(F)cc12 (stereo not shown) | 6.52
38 | CC(N)Cc1c[nH]c2cc(F)ccc12 (stereo not shown) | 49.9
39 | NCCc1c[nH]c2cc(O)c(O)cc12 | 41.6
40 | NCCc1c[nH]c2c(O)cc(O)cc12 | 4570
41 | Cc1c(Br)ccc2c(CCN)c[nH]c12 | 20.8
42 | NCCc1c[nH]c2c(F)cccc12 | 62.4
43 | Cc1ccc2c(CCN)c[nH]c2c1 | 102
44 | NCCc1c[nH]c2c(F)ccc(F)c12 | 337
45 | COc1ccc2cccc(N3CCNCC3)c2c1 | 3.58
46 | c1ccc2c3c([nH]c2c1)CNCC3 | 379
47 | COc1ccc2[nH]c3c(c2c1)CCNC3 | 405
48 | Fc1cccc2c3c([nH]c12)CNCC3 | 25.6
49 | Clc1ccc2[nH]c3c(c2c1)CCNC3 [drawing 166] | 70.7
50 | Brc1ccc2[nH]c3c(c2c1)CCNC3 [drawing 170] | 62.1

Same assay, conditions: [3H]Serotonin; 5-HT2B cells; AVG; read-out: Ki Rat 5-HT2B

Row | SMILES | Ki [nM]
51 | CC(O)C(C)OC(=O)C1CC2c3cccc4[nH]cc(c34)CC2N(C)C1 (stereo not shown) | 12.2
52 | CC(O)C(C)OC(=O)C1CC2c3cccc4c3c(cn4C(C)C)CC2N(C)C1 (stereo not shown) | 6.87
53 | CCCN(CCC)C1CCc2cccc(O)c2C1 (stereo not shown) | 4120
54 | CCCCC(=O)c1cccc2c1CC(NC)CC2 (stereo not shown) | 5150
55 | CN(C)C1CCc2cccc(C(=O)c3ccccc3F)c2C1 (stereo not shown) | 3020
56 | CCCC(=O)c1cccc2c1CC(NC)CC2 (stereo not shown) | 1500
57 | CCCC(=O)c1cccc2c1CC(N(C)C)CC2 (stereo not shown) | 862
58 | CCCCC(=O)c1cccc2c1CC(N(C)C)CC2 (stereo not shown) | 936
59 | CN(C)C1CCc2cccc(C(=O)c3ccccc3)c2C1 (stereo not shown) | 1750
60 | Cc1[nH]c2ccc(O)cc2c1CCN | 284
61 | NCCc1c[nH]c2ccccc12 | 113
62 | CC(C)n1cc(CCN)c2cc(Br)ccc21 | 475
63 | Cc1ccc2[nH]cc(CCN)c2c1 | 32.8
64 | NCCc1c[nH]c2ccc(F)cc12 | 5.65
65 | NCCc1c[nH]c2ccc(Cl)cc12 | 6.21
66 | NCCc1c[nH]c2c1ccc1ccccc12 | 155

Row | SMILES | Ki [nM]
67 | CCCc1ccc2[nH]c3c(c2c1)CCNC3Cc1ccc(OC)c(OC)c1 (stereo not shown) | 28.4
68 | CC(C)c1ccc2[nH]c3c(c2c1)CCNC3C(C)c1cccc2ccccc12 (stereo not shown) | 14.2
69 | CC(C)(C)c1ccc2[nH]c3c(c2c1)CCNC3Cc1cccc2ccccc12 (stereo not shown) | 44.9
70 | COc1ccc(CC2NCCc3c2[nH]c2ccc(-c4ccccc4)cc32)cc1OC (stereo not shown) | 229
71 | Cc1ccc2[nH]c3c(c2c1F)CCNC3Cc1cccc2ccccc12 (stereo not shown) | 4.38
72 | COc1ccc(C(C)(C)C2NCCc3c2[nH]c2ccccc32)cc1OC (stereo not shown) | 220
73 | Cc1c(Br)ccc2c3c([nH]c12)CNCC3 | 32.4
74 | Fc1ccc2[nH]c3c(c2c1)CCNC3 | 322
75 | Cc1ccc2c3c([nH]c2c1)CNCC3 | 78.5
76 | Cc1cccc2c3c([nH]c12)CNCC3 | 60.1
77 | COc1ccc(CC2NCCc3c2[nH]c2c(Br)c(C)ccc32)c(OC)c1OC (stereo not shown) | 8.77
78 | c1ccc(COc2cccc3c4c([nH]c23)CNCC4)cc1 | 5650
79 | COc1ccc(CC2NCCc3c2[nH]c2ccc(C(C)(C)C)cc32)cc1OC (stereo not shown) [drawing 148] | 39.7
80 | COc1ccc(CC2NCCc3c2[nH]c2ccc(C4CCCCC4)cc32)cc1OC (stereo not shown) [drawing 149] | 1460
81 | COc1cc(CC2NCCc3c2[nH]c2ccc(C)cc32)cc(I)c1OC (stereo not shown) [drawing 153] | 4.82

Same assay, conditions: read-out: Ki Rat 5-HT2B; [3H]Serotonin; 5-HT2B cells; AVG

Row | SMILES | Ki [nM]
82 | NCc1c[nH]c2ccc(Br)cc12 | 39.3
